≈ marks a conversion by molar mass, not a printed value. Calls of active or inactive are those of the source. The rule behind the calls is not given here.
What was measured:
[1] = target: T1, Phospholipase A2, membrane associated (Homo sapiens, UniProt P14555); experiment: (§1) Inhibition of recombinant sPLA2-2A (unknown origin) using 1-palmitoyl-2-oleoyl-sn-glycero-3-phosphocholine as substrate preincubated for 10 mins followed by substrate addition measured after 60 mins by colorimetric method
T1 sequence (P14555 whole entry): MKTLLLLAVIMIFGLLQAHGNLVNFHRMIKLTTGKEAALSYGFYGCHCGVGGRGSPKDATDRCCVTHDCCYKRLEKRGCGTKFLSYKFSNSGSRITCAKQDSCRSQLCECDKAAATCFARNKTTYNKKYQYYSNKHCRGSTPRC

[2] = target: T2, Secretory phospholipase A2 (Homo sapiens) (UniProt Q5R387+Q9NZK7+P14555+Q9BZM2+Q9UNK4+P39877+O15496+P04054+Q9NZ20+Q9BZM1+Q9BX93); experiment: Inhibition of sPLA2 in human plasma using 1-Hexadecanoyl-2-(1-pyrenedecanoyl)-sn-glycero-3-phosphomethanol as substrate preincubated for 10 mins followed by substrate addition measured after 90 mins by fluorescence assay; type: cell-free
[3] = Inhibition of recombinant sPLA2-5 (unknown origin) using 1-palmitoyl-2-oleoyl-sn-glycero-3-phosphocholine as substrate preincubated for 10 mins followed by substrate addition measured after 60 mins by colorimetric method; set-up: species or system Homo sapiens
[4] = target: T3, Group 10 secretory phospholipase A2 (Homo sapiens, UniProt O15496); experiment: Inhibition of recombinant sPLA2-10 (unknown origin) using 1-palmitoyl-2-oleoyl-sn-glycero-3-phosphocholine as substrate preincubated for 10 mins followed by substrate addition measured after 60 mins by colorimetric method
T3 sequence (O15496 whole entry): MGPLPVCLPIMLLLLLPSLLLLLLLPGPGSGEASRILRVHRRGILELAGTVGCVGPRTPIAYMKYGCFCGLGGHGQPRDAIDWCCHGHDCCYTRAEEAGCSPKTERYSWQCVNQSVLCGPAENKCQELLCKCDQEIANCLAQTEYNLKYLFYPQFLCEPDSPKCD

[5] = Intrinsic clearance in human hepatocytes at 1 uM assessed per million cells measured up to 60 mins; type: ADME, cell-based, Hepatocyte; conditions: 1 h
[6] = target: Solute carrier organic anion transporter family member 1B1 (Homo sapiens, UniProt Q9Y6L6); experiment: Inhibition of human OATP1B1 expressed in HEK293 cells assessed as reduction in […] uptake at 25 uM; type: cell-based; conditions: hek293, 25 µM
Sequence of Solute carrier organic anion transporter family member 1B1 (Q9Y6L6 whole entry): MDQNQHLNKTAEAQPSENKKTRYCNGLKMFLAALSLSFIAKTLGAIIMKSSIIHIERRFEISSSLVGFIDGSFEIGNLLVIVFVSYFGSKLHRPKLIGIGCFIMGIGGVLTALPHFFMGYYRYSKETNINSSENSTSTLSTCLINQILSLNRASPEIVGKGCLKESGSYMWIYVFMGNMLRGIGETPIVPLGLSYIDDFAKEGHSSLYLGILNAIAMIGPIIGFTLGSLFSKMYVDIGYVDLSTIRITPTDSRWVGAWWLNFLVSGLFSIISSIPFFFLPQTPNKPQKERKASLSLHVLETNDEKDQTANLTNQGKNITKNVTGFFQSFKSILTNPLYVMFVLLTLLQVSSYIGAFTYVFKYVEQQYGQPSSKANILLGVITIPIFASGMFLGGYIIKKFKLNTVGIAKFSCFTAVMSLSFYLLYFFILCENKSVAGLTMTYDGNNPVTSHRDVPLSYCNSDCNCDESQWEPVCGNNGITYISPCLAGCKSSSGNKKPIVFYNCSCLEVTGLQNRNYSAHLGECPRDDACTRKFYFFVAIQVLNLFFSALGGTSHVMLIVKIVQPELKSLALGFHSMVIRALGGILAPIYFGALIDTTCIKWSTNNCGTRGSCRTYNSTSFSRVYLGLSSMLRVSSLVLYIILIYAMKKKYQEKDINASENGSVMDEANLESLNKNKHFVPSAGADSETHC

[7] = AUC (0 to infinity) in mouse at 50 umol/kg, po; type: ADME; set-up: dose 50 umol/kg, route oral, time infinity; conditions: in vivo
[8] = Volume of distribution at steady state in mouse at 10 umol/kg, iv or 50 umol/kg, po; type: ADME, organism-based; conditions: in vivo
[9] = Oral bioavailability in mouse at 50 umol/kg; type: ADME, organism-based; conditions: in vivo
[10] = AUC (0 to infinity) in Sprague-Dawley rat at 8 umol/kg, po; type: ADME; set-up: dose 8 umol/kg, time infinity, route oral; conditions: in vivo
[11] = Volume of distribution at steady state in Sprague-Dawley rat at 2 umol/kg, iv or 8 umol/kg, po; type: ADME, organism-based; conditions: in vivo
[12] = Oral bioavailability in Sprague-Dawley rat at 8 umol/kg; type: ADME, organism-based; conditions: in vivo
[13] = AUC (0 to infinity) in beagle dog at 3 umol/kg, po; type: ADME, Canis lupus familiaris; set-up: dose 3 umol/kg, route oral, time infinity; conditions: in vivo
[14] = Volume of distribution at steady state in beagle dog at 1 umol/kg, iv or 3 umol/kg, po; type: ADME, organism-based, Canis lupus familiaris; conditions: in vivo
[15] = Oral bioavailability in beagle dog at 3 umol/kg; type: ADME, organism-based, Canis lupus familiaris; conditions: in vivo
[16] = AUC (0 to infinity) in cynomolgus monkey at 15.8 umol/kg, po; type: ADME, Macaca fascicularis; set-up: dose 15.8 umol/kg, route oral, time infinity; conditions: in vivo
[17] = Volume of distribution at steady state in cynomolgus monkey at 5 umol/kg, iv or 15.8 umol/kg, po; type: ADME, organism-based, Macaca fascicularis; conditions: in vivo
[18] = Oral bioavailability in cynomolgus monkey at 15.8 umol/kg; type: ADME, organism-based, Macaca fascicularis; conditions: in vivo
[19] = target: Secretory phospholipase A2; experiment: Inhibition of sPLA2 in human HepG2 cells; type: cell-based
[20] = target: Secretory phospholipase A2; experiment: Inhibition of sPLA2 in atherosclerotic plaque from coronary artery disease patient; type: protein assay, Homo sapiens
[21] = species: Macaca fascicularis; experiment: Inhibition of sPLA2 in cynomolgus monkey plasma using 1-Hexadecanoyl-2-(1-pyrenedecanoyl)-sn-glycero-3-phosphomethanol as substrate preincubated for 10 mins followed by substrate addition measured after 90 mins by fluorescence assay; type: cell-free
[22] = test system: Cynomolgus monkey; experiment: In vivo inhibition of sPLA2 in po dosed cynomolgus monkey plasma measured up to 24 hrs; type: functional, Macaca fascicularis
[23] = test system: HepG2; experiment: Inhibition of sPLA2-2A production in human HepG2 cells; type: functional, cell-based
[24] = target: Phospholipase A2, membrane associated (Homo sapiens) (UniProt P14555); experiment: as §1
[25] = Unbound fraction in human plasma; type: ADME, cell-free
[26] = species: Homo sapiens; experiment: Inhibition of recombinant sPLA2-5 (unknown origin) at 25 uM using 1-palmitoyl-2-oleoyl-sn-glycero-3-phosphocholine as substrate preincubated for 10 mins followed by substrate addition measured after 60 mins by colorimetric method
[27] = Solubility of compound in pH 7.4 DMSO/HBSS after 24 hrs by LC-UV/MS analysis; type: physicochemical
[28] = Apparent permeability from apical to basolateral side in human Caco2 cells at pH 6.5; type: ADME, cell-based; conditions: caco-2, pH 6.5
[29] = target: Voltage-gated inwardly rectifying potassium channel KCNH2 (Homo sapiens, UniProt Q12809); experiment: Inhibition of human ERG expressed in CHO cells by patch clamp assay; type: cell-based
[30] = target: Sodium channel protein type 5 subunit alpha (Homo sapiens, UniProt Q14524); experiment: Inhibition of human Nav1.5 expressed in CHO cells by patch clamp assay; type: cell-based
Sequence of Sodium channel protein type 5 subunit alpha (Q14524 whole entry): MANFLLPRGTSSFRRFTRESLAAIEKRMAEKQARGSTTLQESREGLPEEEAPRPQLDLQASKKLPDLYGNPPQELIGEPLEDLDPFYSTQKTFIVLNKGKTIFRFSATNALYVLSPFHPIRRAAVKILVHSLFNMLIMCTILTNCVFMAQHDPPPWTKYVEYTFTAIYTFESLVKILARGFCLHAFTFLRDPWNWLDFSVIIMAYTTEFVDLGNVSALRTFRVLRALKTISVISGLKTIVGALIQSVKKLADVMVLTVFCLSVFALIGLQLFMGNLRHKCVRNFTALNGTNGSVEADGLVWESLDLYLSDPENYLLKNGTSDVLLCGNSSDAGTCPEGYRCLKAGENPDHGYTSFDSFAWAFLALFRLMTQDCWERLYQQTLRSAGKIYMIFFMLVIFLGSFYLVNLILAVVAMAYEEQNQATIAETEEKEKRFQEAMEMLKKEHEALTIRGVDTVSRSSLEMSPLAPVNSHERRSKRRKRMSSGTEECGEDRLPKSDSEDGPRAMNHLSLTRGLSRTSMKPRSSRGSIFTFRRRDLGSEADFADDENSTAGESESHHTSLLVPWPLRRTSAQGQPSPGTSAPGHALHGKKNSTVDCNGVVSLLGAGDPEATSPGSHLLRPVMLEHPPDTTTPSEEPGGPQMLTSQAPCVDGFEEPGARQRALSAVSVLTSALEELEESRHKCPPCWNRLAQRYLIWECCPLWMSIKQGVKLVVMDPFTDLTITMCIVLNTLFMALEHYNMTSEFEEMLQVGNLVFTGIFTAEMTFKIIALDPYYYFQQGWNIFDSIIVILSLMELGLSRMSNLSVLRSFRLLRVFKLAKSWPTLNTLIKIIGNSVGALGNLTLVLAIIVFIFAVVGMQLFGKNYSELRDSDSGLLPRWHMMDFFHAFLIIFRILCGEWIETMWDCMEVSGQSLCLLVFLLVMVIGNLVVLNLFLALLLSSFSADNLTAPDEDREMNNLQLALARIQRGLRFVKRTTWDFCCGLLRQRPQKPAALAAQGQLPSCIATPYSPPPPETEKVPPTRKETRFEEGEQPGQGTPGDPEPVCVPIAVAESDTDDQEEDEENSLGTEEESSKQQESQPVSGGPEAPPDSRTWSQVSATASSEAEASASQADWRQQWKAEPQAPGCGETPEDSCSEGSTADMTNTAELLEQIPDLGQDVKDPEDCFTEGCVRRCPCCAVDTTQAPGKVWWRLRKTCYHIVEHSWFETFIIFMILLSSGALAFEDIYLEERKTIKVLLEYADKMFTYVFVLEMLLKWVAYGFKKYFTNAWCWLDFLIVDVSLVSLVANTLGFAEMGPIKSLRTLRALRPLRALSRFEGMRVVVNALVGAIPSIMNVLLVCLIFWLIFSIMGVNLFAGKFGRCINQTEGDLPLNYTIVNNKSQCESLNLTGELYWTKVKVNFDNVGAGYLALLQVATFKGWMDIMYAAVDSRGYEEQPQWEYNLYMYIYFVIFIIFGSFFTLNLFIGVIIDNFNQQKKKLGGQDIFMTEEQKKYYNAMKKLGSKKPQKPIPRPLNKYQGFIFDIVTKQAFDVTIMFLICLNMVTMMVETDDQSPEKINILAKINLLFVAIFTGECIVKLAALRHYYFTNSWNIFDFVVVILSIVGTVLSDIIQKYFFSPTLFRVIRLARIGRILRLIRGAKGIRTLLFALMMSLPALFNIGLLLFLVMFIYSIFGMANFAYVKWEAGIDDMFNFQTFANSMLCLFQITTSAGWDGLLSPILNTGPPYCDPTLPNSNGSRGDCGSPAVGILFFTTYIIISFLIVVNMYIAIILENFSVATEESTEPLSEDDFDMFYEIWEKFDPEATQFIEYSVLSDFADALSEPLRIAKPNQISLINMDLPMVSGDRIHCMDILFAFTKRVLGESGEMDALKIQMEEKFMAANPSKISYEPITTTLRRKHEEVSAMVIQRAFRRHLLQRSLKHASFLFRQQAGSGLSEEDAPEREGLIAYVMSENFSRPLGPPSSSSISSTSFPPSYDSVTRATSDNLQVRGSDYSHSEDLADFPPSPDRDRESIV

[31] = Inhibition of human IKs channel expressed in CHO cells by patch clamp assay; type: cell-based
[32] = target: A-type voltage-gated potassium channel KCND3 (Homo sapiens, UniProt Q9UK17); experiment: Inhibition of human Kv4.3 expressed in CHO cells by patch clamp assay; type: cell-based
[33] = target: Voltage-dependent T-type calcium channel subunit alpha-1H (Homo sapiens, UniProt O95180); experiment: Inhibition of human Cav3.2 expressed in CHO cells by patch clamp assay; type: cell-based
[34] = target: Voltage-dependent L-type calcium channel subunit alpha-1C (Homo sapiens, UniProt Q13936); experiment: Inhibition of human Cav1.2 expressed in CHO cells by patch clamp assay; type: cell-based
Sequence of Voltage-dependent L-type calcium channel subunit alpha-1C (Q13936 whole entry): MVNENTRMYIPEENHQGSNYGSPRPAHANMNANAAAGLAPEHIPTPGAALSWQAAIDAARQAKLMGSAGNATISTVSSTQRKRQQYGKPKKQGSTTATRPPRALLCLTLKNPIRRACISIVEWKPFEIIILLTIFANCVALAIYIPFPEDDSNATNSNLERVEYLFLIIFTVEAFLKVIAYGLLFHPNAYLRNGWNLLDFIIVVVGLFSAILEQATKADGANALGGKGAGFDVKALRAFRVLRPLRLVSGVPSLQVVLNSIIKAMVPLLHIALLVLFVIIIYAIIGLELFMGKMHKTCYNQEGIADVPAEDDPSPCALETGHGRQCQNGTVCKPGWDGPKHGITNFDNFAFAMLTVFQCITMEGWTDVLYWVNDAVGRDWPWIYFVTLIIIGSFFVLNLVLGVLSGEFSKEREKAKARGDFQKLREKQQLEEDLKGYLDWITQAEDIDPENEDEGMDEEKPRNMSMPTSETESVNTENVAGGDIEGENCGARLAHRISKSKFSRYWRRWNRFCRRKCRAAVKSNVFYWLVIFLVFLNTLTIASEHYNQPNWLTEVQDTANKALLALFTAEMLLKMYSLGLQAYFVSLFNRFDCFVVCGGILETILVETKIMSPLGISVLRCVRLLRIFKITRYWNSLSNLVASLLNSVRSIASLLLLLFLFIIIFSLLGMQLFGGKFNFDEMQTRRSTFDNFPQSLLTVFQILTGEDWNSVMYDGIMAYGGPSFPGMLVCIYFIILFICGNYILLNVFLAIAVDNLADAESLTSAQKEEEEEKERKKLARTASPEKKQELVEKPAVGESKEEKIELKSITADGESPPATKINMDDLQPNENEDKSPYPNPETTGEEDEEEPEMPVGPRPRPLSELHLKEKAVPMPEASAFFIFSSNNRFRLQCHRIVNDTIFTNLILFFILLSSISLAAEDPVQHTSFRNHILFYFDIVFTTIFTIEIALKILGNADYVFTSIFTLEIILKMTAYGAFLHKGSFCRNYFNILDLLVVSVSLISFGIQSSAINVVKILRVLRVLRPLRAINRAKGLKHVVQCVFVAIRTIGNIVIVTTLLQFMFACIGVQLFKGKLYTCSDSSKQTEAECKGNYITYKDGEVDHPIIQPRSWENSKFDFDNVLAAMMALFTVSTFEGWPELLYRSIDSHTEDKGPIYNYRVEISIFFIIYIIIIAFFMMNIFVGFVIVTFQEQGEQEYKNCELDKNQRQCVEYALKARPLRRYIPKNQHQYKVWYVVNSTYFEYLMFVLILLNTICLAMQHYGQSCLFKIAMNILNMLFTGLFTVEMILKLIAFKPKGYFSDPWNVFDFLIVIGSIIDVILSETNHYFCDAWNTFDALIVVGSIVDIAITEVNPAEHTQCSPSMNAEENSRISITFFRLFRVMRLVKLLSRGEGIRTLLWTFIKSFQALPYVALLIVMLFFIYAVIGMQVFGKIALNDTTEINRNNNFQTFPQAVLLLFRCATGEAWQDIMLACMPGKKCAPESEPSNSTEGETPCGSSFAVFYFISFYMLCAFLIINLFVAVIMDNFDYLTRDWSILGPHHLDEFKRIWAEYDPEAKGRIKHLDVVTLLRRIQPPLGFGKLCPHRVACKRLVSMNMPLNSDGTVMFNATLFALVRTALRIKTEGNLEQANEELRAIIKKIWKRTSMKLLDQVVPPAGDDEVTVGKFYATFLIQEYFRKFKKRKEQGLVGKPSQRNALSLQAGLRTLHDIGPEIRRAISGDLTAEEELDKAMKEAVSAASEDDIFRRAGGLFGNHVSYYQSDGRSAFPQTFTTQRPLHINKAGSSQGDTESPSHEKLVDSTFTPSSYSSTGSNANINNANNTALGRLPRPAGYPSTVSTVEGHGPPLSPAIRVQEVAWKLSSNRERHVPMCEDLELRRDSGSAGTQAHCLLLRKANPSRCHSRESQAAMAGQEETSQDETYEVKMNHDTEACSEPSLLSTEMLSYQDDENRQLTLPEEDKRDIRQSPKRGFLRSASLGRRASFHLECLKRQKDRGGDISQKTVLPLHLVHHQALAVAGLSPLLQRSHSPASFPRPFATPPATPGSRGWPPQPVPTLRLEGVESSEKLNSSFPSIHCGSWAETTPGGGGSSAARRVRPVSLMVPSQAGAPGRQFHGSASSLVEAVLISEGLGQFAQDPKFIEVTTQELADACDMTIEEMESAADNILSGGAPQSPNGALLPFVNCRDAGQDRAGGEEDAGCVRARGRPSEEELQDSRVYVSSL

[35] = target: Cytochrome P450 1A2 (Homo sapiens, UniProt P05177); experiment: Inhibition of human recombinant CYP1A2; type: ADME
[36] = target: Cytochrome P450 2C8 (Homo sapiens, UniProt P10632); experiment: Inhibition of human recombinant CYP2C8; type: ADME
[37] = target: Cytochrome P450 3A4 (Homo sapiens, UniProt P08684); experiment: Inhibition of human recombinant CYP3A4; type: ADME
[38] = target: Cytochrome P450 2C9 (Homo sapiens, UniProt P11712); experiment: Inhibition of human recombinant CYP2C9; type: ADME
[39] = target: Cytochrome P450 2C19 (Homo sapiens, UniProt P33261); experiment: Inhibition of human recombinant CYP2C19; type: ADME
[40] = target: Cytochrome P450 2D6 (Homo sapiens, UniProt P10635); experiment: Inhibition of human recombinant CYP2D6; type: ADME
[41] = Volume of distribution at steady state in Sprague-Dawley rat at 2 umol/kg, iv or 4 umol/kg, po; type: ADME, organism-based; conditions: in vivo
[42] = Oral bioavailability in Sprague-Dawley rat at 4 umol/kg; type: ADME, organism-based; conditions: in vivo
[43] = Volume of distribution at steady state in beagle dog at 1 umol/kg, iv or 2 umol/kg, po; type: ADME, organism-based, Canis lupus familiaris; conditions: in vivo
[44] = Oral bioavailability in beagle dog at 2 umol/kg; type: ADME, organism-based, Canis lupus familiaris; conditions: in vivo
[45] = target: T2, Secretory phospholipase A2 (Homo sapiens); experiment: Inhibition of sPLA2 in human plasma at 25 uM using 1-Hexadecanoyl-2-(1-pyrenedecanoyl)-sn-glycero-3-phosphomethanol as substrate preincubated for 10 mins followed by substrate addition measured after 90 mins by fluorescence assay; type: cell-free

NC(=O)c1ccc(Cc2ccccc2)cc1-c1cccc(CCCC(=O)O)c1
IC50 [1]: 110 nM
fIC50 [2]: 0.03 µM
IC50 [3]: 4100 nM
IC50 [4]: 5400 nM

NC(=O)c1ccc(Cc2ccccc2)cc1-c1cccc(CC(=O)O)c1
IC50 [1]: 70 nM
fIC50 [2]: 0.04 µM
IC50 [3]: 1400 nM
IC50 [4]: 1100 nM

C[C@H](Cc1cccc(-c2cc(Cc3ccccc3)ccc2C(N)=O)c1)C(=O)O
IC50 [1]: 10 nM
fIC50 [2]: 0.0001 µM
IC50 [3]: 40 nM
IC50 [4]: 400 nM
CLint [5]: 12 µL/min/1e6 cells
inhibition (INH) [6]: Not Active
AUC(0-inf) [7]: 69.7 µM·h
Vdss [8]: 2.8 L/kg
F [9]: 76.3%
AUC(0-inf) [10]: 70 µM·h
Vdss [11]: 0.21 L/kg
F [12]: 84%
AUC(0-inf) [13]: 284 µM·h
Vdss [14]: 0.15 L/kg
F [15]: 91%
AUC(0-inf) [16]: 71.3 µM·h
Vdss [17]: 1.1 L/kg
F [18]: 81%
IC50 [19]: < 14 nM
IC50 [20]: 56 nM
fIC50 [21]: 1 nM
fIC80 [22]: 13 nM
inhibition ([22]; Macaca fascicularis): Dose-dependent effect
IC50 [23]: 176 nM

NC(=O)c1ccc(Cc2ccccc2)cc1
inhibition [24]: Dose-dependent effect
IC50 [1]: 24000 nM
fIC50 [2]: 0.9 µM
Fu [25]: 1.8%
IC50 [4]: 2200 nM
inhibition [26]: inactive

NC(=O)c1ccc(Cc2ccccc2)cc1-c1cccc(OCC(=O)O)c1
IC50 [1]: 190 nM
IC50 [4]: 3700 nM

CCc1c(C(=O)C(N)=O)c2c(OCC(=O)O)cccc2n1Cc1ccccc1 [VARESPLADIB]
fIC50 [2]: 0.008 µM
Fu [25]: 12.5%
IC50 [3]: 120 nM

CCC(Cc1cccc(-c2cc(Cc3ccccc3)ccc2C(N)=O)c1)C(=O)O (centres undefined)
IC50 [1]: 21 nM
fIC50 [2]: 0.0008 µM
IC50 [3]: 70 nM
IC50 [4]: 430 nM
CLint [5]: 25 µL/min/1e6 cells

NC(=O)c1ccc(Cc2ccccc2)cc1-c1cccc(CCC(=O)O)c1
IC50 [1]: 12 nM
fIC50 [2]: 0.007 µM
IC50 [3]: 360 nM
IC50 [4]: 280 nM
solubility kinetic at 24 h [27]: 98 µM (≈ 35.2 µg/mL)
Papp [28]: 40.1 ×10⁻⁶ cm/s
CLint [5]: 5.2 µL/min/1e6 cells
IC50 [29]: > 33300 nM
IC50 [30]: > 33300 nM
IC50 [31]: > 33300 nM
IC50 [32]: > 33300 nM
IC50 [33]: > 33300 nM
IC50 [34]: > 33300 nM
IC50 [35]: > 20000 nM
IC50 [36]: > 20000 nM
IC50 [37]: > 20000 nM
IC50 [38]: > 20000 nM
IC50 [39]: > 20000 nM
IC50 [40]: > 20000 nM
Vdss [41]: 0.22 L/kg
F [42]: 81%
Vdss [43]: 0.26 L/kg
F [44]: 82%

CC(Cc1cccc(-c2cc(Cc3ccccc3)ccc2C(N)=O)c1)C(=O)O (centres undefined)
IC50 [1]: 11 nM
fIC50 [2]: 0.001 µM
IC50 [3]: 70 nM
IC50 [4]: 750 nM
CLint [5]: 9.6 µL/min/1e6 cells
inhibition (INH) [6]: Not Active

NC(=O)c1ccc(Cc2ccccc2)cc1-c1cccc(C(=O)O)c1
IC50 [1]: 910 nM
IC50 [3]: > 10000 nM
inhibition [45]: inactive

C[C@@H](Cc1cccc(-c2cc(Cc3ccccc3)ccc2C(N)=O)c1)C(=O)O
IC50 [1]: 38 nM
IC50 [3]: 1200 nM
IC50 [4]: 3800 nM
CLint [5]: 9.3 µL/min/1e6 cells
